From patent publication US11198673B2, “Therapeutic compounds and compositions” (eXIthera Pharmaceuticals, Inc., priority 2014, dated 2021)
pIC50: −log10 of the molar value. Converted amounts (≈) assume the structure as drawn.

Experiments:
[1] = molecular target: T1, Factor Xa (Homo sapiens, UniProt P00742); test: Dose response assay for protease inhibitors: Factor Xa (FXIa fold selectivity); format: biochemical; conditions: fold selectivity for FXIa over Factor Xa
T1 construct: Factor Xa; 0.2 μM in 50% glycerol (9.2 μg/mL)
T1 sequence (P00742 235-488 limits assumed): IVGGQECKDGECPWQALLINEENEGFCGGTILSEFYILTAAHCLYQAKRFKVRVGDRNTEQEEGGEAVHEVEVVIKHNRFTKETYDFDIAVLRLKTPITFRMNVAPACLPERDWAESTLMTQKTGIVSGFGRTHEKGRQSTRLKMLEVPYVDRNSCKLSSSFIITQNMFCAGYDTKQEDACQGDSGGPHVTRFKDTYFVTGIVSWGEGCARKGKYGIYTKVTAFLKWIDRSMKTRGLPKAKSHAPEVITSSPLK
T1 sequence (P00742 41-179 partner limits assumed): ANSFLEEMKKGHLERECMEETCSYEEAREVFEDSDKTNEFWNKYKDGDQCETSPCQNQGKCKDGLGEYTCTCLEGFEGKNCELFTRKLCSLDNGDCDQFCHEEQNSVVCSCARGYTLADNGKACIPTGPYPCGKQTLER
Procedure: (§1) • Assay buffer: 20 mM Hepes, pH 7.4; 150 mM NaCl; 0.02% Tween 20 • Compounds: 10 mM stocks in DMSO • Substrate: 20 mM Glp-Pro-Arg-AMC, 25 mg/2.3 mL H2O (store at +4° C.) [Factor XIa, thrombin, and trypsin] • 20 mM Pro-Phe-Arg-AMC (Bachem I-1295), 25 mg/2.2 mL H2O (store at +4° C.) [Factor Xa] • Enzyme: Factor XIa; 0.25 μM in 50% glycerol (20 μg/mL) • Trypsin; 0.2 μM in 50% glycerol (4.8 μg/mL) • Thrombin; 0.2 μM in 50% glycerol (7.34 μg/mL) • Factor Xa; 0.2 μM in 50% glycerol (9.2 μg/mL) • These stocks are aliquoted ([…]) and stored at −20° C. Methods: • 1. Dilute the substrate to 100 μM in assay buffer (30 μL/6 mL). The enzyme is diluted to 0.5 nM just prior to use (12 μL/6 mL for Factor XIa; 15 μL/6 mL for all of the rest.) • 2. Pipette 50 μL of substrate into each well of the 96 well (12×8) microtiter plate. (Column 1 is used as the 100% activity control and receives no compound, and Column 12 is the blank and receives no enzyme.) Add an additional 46 μL to column 2. • 3. Pipette 4 μL of each compound into the appropriate well in column 2 of the plate (unknowns assayed in triplicate, standard assayed in duplicate). The final compound concentration will be 1/50th of the stock. • 4. Serially two-fold dilute the compound by mixing the sample in column 2, removing 50 μL to the next well (column 3), mix and remove to column 4, etc. until column 11. After mixing column 11, remove 50 μL and discard. • 5. Pipette 50 μL of buffer into column 12. Initiate the reaction by adding 50 μL of enzyme solution to each well of columns 1-11 as rapidly as possible. • 6. Read the plate in a spectrophotometer (SpectraMax) at 30° C., wherein each well is measured every 60 s for 30 min. For Factor Xa assays, each well is measured every 1 min for a total of 60 min. • 7. For Factor XIa assays, the compounds are assayed, in duplicate, at 3 different starting concentrations, 20, 2, and 0.2 μM; 1:10, 1:100, and 1:1000 dil'n of 10 mM stock. All data sets are combined for graphing and data fitting. • 8. Data can be used both for estimation of IC50 and for estimation of Kon.

[2] = β-Lactam stability in rat plasma; format: in vitro ADME; conditions: normal rat plasma, room temperature; read-out: Rat Plasma Stability (T1/2; min)
Procedure, shortened: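 Compounds incubated in normal rat plasma at room temperature, sampled into acetonitrile from 2 to 480 min. Supernatants analysed by HPLC-MS on C18, extracted ion chromatograms of parent and parent+18 (H2O adduct) integrated; T½ = ln(2)/k from single-phase exponential decay fit.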

[3] = in vitro; conditions: both, human, microsomes, pH 7.4
Procedure: The following procedure was used to determine the stability of a test compound in pooled liver microsomes from human (mixed gender) in 96-well plate format. The test compound was quantified at five time points by HPLC-MS/MS analysis. The final microsomal protein concentration in the assay was 0.1 mg/mL. […] The test compound was pre-incubated with human liver microsomes in phosphate buffer (pH 7.4) for 5 min in a 37° C. shaking waterbath. The reaction was initiated by adding NADPH-generating system and incubated for 0, 15, 30, 45, and 60 minutes. The reaction was stopped by transferring the incubation mixture to acetonitrile/methanol. Samples were then mixed and centrifuged and the supernatants used for HPLC-MS/MS analysis. Peak areas corresponding to the test compound were recorded. The compound remaining was calculated by comparing the peak area at each time point to time zero.

[4] = test system: Trypsin; test: Dose response assay for protease inhibitors: trypsin (FXIa fold selectivity); format: biochemical; conditions: fold selectivity for FXIa over trypsin
Procedure: as §1

[5] = molecular target: T2, Thrombin (Homo sapiens, UniProt P00734); test: Dose response assay for protease inhibitors: thrombin (FXIa fold selectivity); format: biochemical; conditions: fold selectivity for FXIa over thrombin
T2 construct: Thrombin; 0.2 μM in 50% glycerol (7.34 μg/mL)
Procedure: as §1

[6] = physchem; format: physicochemical; conditions: pH 7.4, aqueous buffer, kinetic from dmso stock
Procedure: The test compound was prepared at 200 μM in PBS from a 10 mM DMSO stock solution. The final DMSO concentration was 2%. The PBS buffer samples were mixed thoroughly followed by incubation at room temperature for 24 h. At the end of the incubation, the PBS buffer samples were centrifuged and supernatants analyzed by HPLC.

[7] = molecular target: T3, human Factor XIa (Homo sapiens, UniProt P03951); test: Factor XIa enzyme inhibition assay (IC50, purified enzyme); format: biochemical; conditions: purified enzyme 0.25 nM, substrate 50 μM; read-out: Potency hFXIa IC50
T3 construct: Enzyme: Factor XIa; 0.25 μM in 50% glycerol (20 μg/mL)
T3 sequence (P03951 388-625 limits assumed): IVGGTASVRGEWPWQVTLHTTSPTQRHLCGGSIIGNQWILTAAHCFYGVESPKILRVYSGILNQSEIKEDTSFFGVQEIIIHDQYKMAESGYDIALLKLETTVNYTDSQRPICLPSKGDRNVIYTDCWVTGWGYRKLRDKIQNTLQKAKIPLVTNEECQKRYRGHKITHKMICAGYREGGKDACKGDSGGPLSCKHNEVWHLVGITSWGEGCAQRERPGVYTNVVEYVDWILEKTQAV
T3 sequence (P03951 19-387 partner limits assumed): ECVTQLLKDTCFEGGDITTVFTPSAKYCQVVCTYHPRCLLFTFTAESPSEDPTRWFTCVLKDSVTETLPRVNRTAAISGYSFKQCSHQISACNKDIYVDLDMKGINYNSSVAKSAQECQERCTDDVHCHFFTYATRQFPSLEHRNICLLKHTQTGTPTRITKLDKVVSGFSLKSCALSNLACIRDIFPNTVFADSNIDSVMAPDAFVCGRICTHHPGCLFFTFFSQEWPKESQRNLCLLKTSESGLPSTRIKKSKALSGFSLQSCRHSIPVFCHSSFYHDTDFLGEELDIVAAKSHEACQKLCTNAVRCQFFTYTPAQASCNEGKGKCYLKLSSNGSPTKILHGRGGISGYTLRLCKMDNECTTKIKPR
Procedure, shortened: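 Fluorogenic Glp-Pro-Arg-AMC cleavage, 50 μM substrate, 0.25 nM enzyme, in 20 mM Hepes pH 7.4, 150 mM NaCl, 0.02% Tween 20. Serial two-fold compound dilutions from starting concentrations of 20, 2 and 0.2 μM. Read every minute for 30 min at 30° C; IC50 from a four-parameter fit of dose-response.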

[8] = in vitro; conditions: for fraction unbound at 4 h, 10 µM: both, human, plasma, pH 7.4
Procedure: The following procedure was used to determine the plasma protein binding of a test compound in pooled plasma from human (mixed gender) via equilibrium dialysis in a 96-well plate format. The dialysate compartment is loaded with phosphate-buffered saline (pH 7.4) and the sample side is loaded with plasma spiked with the test compound at a concentration of 10 μM. After loading, samples are covered and incubated for 4 hours at 37° C. After incubation, each compartment is sampled, diluted with acetonitrile/buffer and centrifuged. The supernatants are analyzed by HPLC-MS/MS. The amount measured in the plasma compartment includes both free and bound drug, while that on the buffer side represents free drug only; the differences are used to calculate the percentage plasma protein bound.

SMILES	FXIa Fold Selectivity FXa [1]	half-life [2]	half-life at 0.1 µM [3]	FXIa Fold Selectivity Trypsin [4]	FXIa Fold Selectivity Thrombin [5]	solubility at 4 h [6]	pIC50 [7]	fraction unbound at 4 h, 10 µM [8]	binding of reference compounds to human plasma proteins [8]	solubility at 24 h [6]
C[C@@H](NC(=O)N1C(=O)[C@H](Cc2ccnc(N)c2)[C@H]1C(=O)O)C1CCCCC1 [Example 38]	I (“I” indicates >1000)	> 1.67 h	> 1 h	H (“H” indicates 500-1000)	I (“I” indicates >1000)	> 100 µM	> 8.00	> 0.1	–	–
Nc1cc(C[C@H]2C(=O)N(C(=O)N[C@@H](C3CCCCC3)C(F)(F)F)[C@@H]2C(=O)O)ccn1 [Example 88]	I (“I” indicates >1000)	> 1.67 h	> 1 h	G (“G” indicates 1-500)	I (“I” indicates >1000)	> 100 µM	> 8.00	> 0.1	–	–
C[C@@H](NC(=O)N1C(=O)[C@H](Cc2ccnc(N)c2)[C@H]1C(=O)O)c1ccc2c(c1)OC(F)(F)O2 [Example 91]	I (“I” indicates >1000)	> 1.67 h	> 1 h	G (“G” indicates 1-500)	I (“I” indicates >1000)	> 100 µM	> 8.00	0.02 to 0.1	–	–
CCOC(=O)[C@@H]1[C@@H](Cc2ccnc(NC(=O)OCOC(=O)C(C)C)c2)C(=O)N1C(=O)N[C@H](C)c1ccc2c(c1)OC(F)(F)O2 [Example 92]	H (“H” indicates 500-1000)	< 1.67 h	–	I (“I” indicates >1000)	I (“I” indicates >1000)	1 to 10 µM (≈ 0.621 to 6.21 µg/mL)	7.00 to 8.00	–	–	–
CC(C)C(=O)OCOC(=O)Nc1cc(C[C@H]2C(=O)N(C(=O)N[C@H](C)c3ccc4c(c3)OC(F)(F)O4)[C@@H]2C(=O)O)ccn1 [Example 100]	G (“G” indicates 1-500)	–	< 0.5 h	G (“G” indicates 1-500)	G (“G” indicates 1-500)	> 100 µM	6.00 to 7.00	< 0.02	–	–
C[C@@H](NC(=O)N1C(=O)C(Cc2ccnc(Cl)c2)[C@H]1C(=O)O)c1ccc2c(c1)OC(F)(F)O2 (some centres unmarked) [Example 128]	–	> 1.67 h	> 1 h	–	–	> 100 µM	< 6.00	< 0.02	–	–
O=C(O)[C@@H]1[C@@H](Cc2ccncc2)C(=O)N1C(=O)N[C@@H](C1CCCCC1)C(F)(F)F [Example 135]	G (“G” indicates 1-500)	> 1.67 h	–	G (“G” indicates 1-500)	G (“G” indicates 1-500)	–	6.00 to 7.00	–	–	–
CCOC(=O)[C@@H]1[C@@H](Cc2ccnc(NC(=O)OCOC(=O)C(C)C)c2)C(=O)N1C(=O)N[C@H](C)C1CCCCC1 [Example 137]	H (“H” indicates 500-1000)	< 1.67 h	–	I (“I” indicates >1000)	I (“I” indicates >1000)	–	7.00 to 8.00	–	–	–
CCOC(=O)[C@@H]1[C@@H](Cc2ccnc(NC(=O)OCOC(=O)C(C)C)c2)C(=O)N1C(=O)N[C@@H](C1CCCCC1)C(F)(F)F [Example 140]	I (“I” indicates >1000)	< 1.67 h	–	G (“G” indicates 1-500)	I (“I” indicates >1000)	–	7.00 to 8.00	–	–	–
CCOC(=O)[C@@H]1[C@@H](Cc2ccnc(NC(=O)[C@H](C)N)c2)C(=O)N1C(=O)N[C@H](C)c1ccc2c(c1)OC(F)(F)O2 [Example 148]	G (“G” indicates 1-500)	< 1.67 h	–	G (“G” indicates 1-500)	G (“G” indicates 1-500)	–	6.00 to 7.00	–	–	–
O=C(O)[C@@H]1[C@@H](CCc2cccc(Cl)c2F)C(=O)N1C(=O)N[C@@H](C1CCCCC1)C(F)(F)F [Example 156]	H (“H” indicates 500-1000)	> 1.67 h	–	I (“I” indicates >1000)	I (“I” indicates >1000)	–	6.00 to 7.00	–	–	–
CCOC(=O)[C@@H]1C(CCc2cccc(Cl)c2)C(=O)N1C(=O)N[C@@H](C1CCCCC1)C(F)(F)F (some centres unmarked) [Example 158]	–	–	0.5 to 1 h	–	–	< 1 µM	6.00 to 7.00	> 0.1	–	–
CCOC(=O)[C@@H]1[C@@H](Cc2ccnc(N)c2)C(=O)N1C(=O)N[C@@H](C)c1ccc2c(c1)OC(F)(F)O2 [Example 166]	H (“H” indicates 500-1000)	< 1.67 h	–	G (“G” indicates 1-500)	I (“I” indicates >1000)	–	> 8.00	–	–	–
C[C@@H](NC(=O)N1C(=O)[C@H](Cc2ccnc(N)c2)[C@H]1C(=O)O)c1ccc(OC(F)(F)F)cc1 [Example 168]	I (“I” indicates >1000)	> 1.67 h	–	I (“I” indicates >1000)	I (“I” indicates >1000)	–	> 8.00	–	–	–
CCOC(=O)[C@@H]1[C@@H](Cc2ccncc2)C(=O)N1C(=O)N[C@H](C)c1ccc2c(c1)OC(F)(F)O2 [Example 170]	G (“G” indicates 1-500)	< 1.67 h	–	G (“G” indicates 1-500)	G (“G” indicates 1-500)	–	7.00 to 8.00	–	–	–
CCCC(=O)Nc1ccc(OCC(O)CNC(C)C)c(C(C)=O)c1 (centres unmarked) [acebutolol, reference compound]	–	–	–	–	–	–	–	–	low	–
COCCc1ccc(OCC(O)CNC(C)C)cc1 (centres unmarked) [metoprolol, reference compound]	–	–	–	–	–	–	–	–	–	200 µM (≈ 53.5 µg/mL)
C=C[C@H]1C[N@@]2CC[C@H]1C[C@@H]2[C@@H](O)c1ccnc2ccc(OC)cc12 [quinidine, reference compound]	–	–	–	–	–	–	–	–	medium	–
